Calls of active or inactive are those of the source. The rule behind the calls is not given here.
Tests used:
Rattus norvegicus [1] = assay: % decrease in brain norepinephrine in anesthetized spontaneously hypertensive rats(SHR) at 24 hours after administration of 150 mg/kg dose perorally; format: functional; details: route oral
Rattus norvegicus [2] = assay: Systolic blood pressure (SBP) in anesthetized spontaneously hypertensive rats(SHR) at 7.5 hours after administration of 35 mg/kg dose perorally; format: functional; details: route oral
Adrenergic receptor beta = Adrenergic receptor beta (Rattus norvegicus, UniProt P18090+P10608+P26255)
Description: Inhibition constant from beta adrenergic receptor binding assay

Rattus norvegicus [3] = assay: % decrease in heart norepinephrine in anesthetized spontaneously hypertensive rats(SHR) at 24 hours after administration of 150 mg/kg dose perorally; format: functional; details: route oral
Rattus norvegicus [4] = assay: % decrease in brain norepinephrine in anesthetized spontaneously hypertensive rats(SHR) at 24 hours after administration of 35 mg/kg dose perorally; format: functional; details: route oral
Rattus norvegicus [5] = assay: Systolic blood pressure (SBP) in anesthetized spontaneously hypertensive rats (SHR) before administration of 75 mg/kg dose perorally.; format: functional; parameters: unit: mmHg; details: route oral
Rattus norvegicus [6] = assay: % decrease in heart norepinephrine in anesthetized spontaneously hypertensive rats(SHR) at 3 hours after administration of 150 mg/kg dose perorally; format: functional; details: route oral
Rattus norvegicus [7] = assay: % decrease in brain norepinephrine in anesthetized spontaneously hypertensive rats(SHR) at 3 hours after administration of 150 mg/kg dose perorally; format: functional; details: route oral
Rattus norvegicus [8] = assay: % decrease in brain norepinephrine in anesthetized spontaneously hypertensive rats(SHR) at 1 hours after administration of 150 mg/kg dose perorally; format: functional; details: route oral
Rattus norvegicus [9] = assay: Systolic blood pressure (SBP) in anesthetized spontaneously hypertensive rats(SHR) at 7.5 hours after administration of 75 mg/kg dose perorally; format: functional; details: route oral
Rattus norvegicus [10] = assay: % decrease in adrenal epinephrine in anesthetized spontaneously hypertensive rats(SHR) at 1 hours after administration of 150 mg/kg dose perorally; format: functional; details: route oral
Rattus norvegicus [11] = assay: % decrease in systolic blood pressure (SBP) in anesthetized spontaneously hypertensive rats(SHR) after administration of 150 mg/kg dose perorally; details: route oral
Rattus norvegicus [12] = assay: % decrease in systolic blood pressure (SBP) in anesthetized spontaneously hypertensive rats(SHR) after administration of 75 mg/kg dose perorally; details: route oral
Rattus norvegicus [13] = assay: % decrease in heart norepinephrine in anesthetized spontaneously hypertensive rats(SHR) at 24 hours after administration of 75 mg/kg dose perorally; format: functional; details: route oral
Rattus norvegicus [14] = assay: % decrease in heart norepinephrine in anesthetized spontaneously hypertensive rats(SHR) at 1 hours after administration of 150 mg/kg dose perorally; format: functional; details: route oral
Rattus norvegicus [15] = assay: % decrease in adrenal epinephrine in anesthetized spontaneously hypertensive rats(SHR) at 24 hours after administration of 35 mg/kg dose perorally; format: functional; details: route oral
Rattus norvegicus [16] = assay: % decrease in heart norepinephrine in anesthetized spontaneously hypertensive rats(SHR) at 24 hours after administration of 35 mg/kg dose perorally; value significantly different was control; format: functional; details: route oral
Rattus norvegicus [17] = assay: Systolic blood pressure (SBP) in anesthetized spontaneously hypertensive rats(SHR) at 7.5 hours after administration of 17 mg/kg dose, perorally; percentage falls in systolic blood pressure were not statistically signific ant; format: functional, organism-based; parameters: dose 17 mg/kg; details: Artery
Rattus norvegicus [18] = assay: % decrease in brain norepinephrine in anesthetized spontaneously hypertensive rats(SHR) at 7 hours after administration of 150 mg/kg dose perorally; format: functional; details: route oral
Rattus norvegicus [19] = assay: % decrease in heart norepinephrine in anesthetized spontaneously hypertensive rats(SHR) at 7 hours after administration of 150 mg/kg dose perorally;; format: functional; details: route oral
Rattus norvegicus [20] = assay: % decrease in brain norepinephrine in anesthetized spontaneously hypertensive rats(SHR) at 24 hours after administration of 75 mg/kg dose perorally; format: functional; details: route oral
Rattus norvegicus [21] = assay: % decrease in adrenal epinephrine in anesthetized spontaneously hypertensive rats(SHR) at 24 hours after administration of 75 mg/kg dose perorally; format: functional; details: route oral
Rattus norvegicus [22] = assay: Systolic blood pressure (SBP) in anesthetized spontaneously hypertensive rats(SHR) before administration of 17 mg/kg dose perorally; format: functional; details: route oral
Rattus norvegicus [23] = assay: % decrease in adrenal epinephrine in anesthetized spontaneously hypertensive rats(SHR) at 7 hours after administration of 150 mg/kg dose perorally; format: functional; details: route oral
Cavia porcellus = species on record: Cavia porcellus; assay: Inhibition of the isoproterenol response at a dose of 1 x 10e -4M in guinea pig; slight inhibition was found; format: functional, organism-based
Rattus norvegicus [24] = assay: % decrease in adrenal epinephrine in anesthetized spontaneously hypertensive rats(SHR) at 24 hours after administration of 150 mg/kg dose perorally; format: functional; details: route oral
Rattus norvegicus [25] = assay: % decrease in adrenal epinephrine in anesthetized spontaneously hypertensive rats(SHR) at 3 hours after administration of 150 mg/kg dose perorally; format: functional; details: route oral
Rattus norvegicus [26] = assay: % decrease in hypothalamus norepinephrine in anesthetized spontaneously hypertensive rats(SHR) at 5 hours after administration of 75 mg/kg dose perorally; format: functional; details: route oral
Rattus norvegicus [27] = assay: % decrease in heart 5-HT in anesthetized spontaneously hypertensive rats(SHR) at 5 hours after administration of 75 mg/kg dose perorally; format: functional; details: route oral
Rattus norvegicus [28] = assay: % decrease in heart norepinephrine in anesthetized spontaneously hypertensive rats(SHR) at 5 hours after administration of 75 mg/kg dose perorally; format: functional; details: route oral
Rattus norvegicus [29] = assay: % decrease in hypothalamus norepinephrine in anesthetized spontaneously hypertensive rats(SHR) at 5 hours after administration of 150 mg/kg dose perorally; format: functional; details: route oral
Rattus norvegicus [30] = assay: % decrease in hypothalamus DA in anesthetized spontaneously hypertensive rats(SHR) at 5 hours after administration of 150 mg/kg dose perorally; details: route oral
Rattus norvegicus [31] = assay: % decrease in hypothalamus DA in anesthetized spontaneously hypertensive rats(SHR) at 5 hours after administration of 75 mg/kg dose perorally; *value significantly different was control.; details: route oral
Rattus norvegicus [32] = assay: Systolic blood pressure (SBP) in anesthetized spontaneously hypertensive rats(SHR) at 7.5 hours after administration of 75 mg/kg dose perorally; NS is not statistically significant.
Rattus norvegicus [33] = assay: % decrease in heart 5-HT in anesthetized spontaneously hypertensive rats(SHR) at 5 hours after administration of 150 mg/kg dose perorally; format: functional; details: route oral
Rattus norvegicus [34] = assay: % decrease in heart norepinephrine in anesthetized spontaneously hypertensive rats(SHR) at 5 hours after administration of 150 mg/kg dose perorally; format: functional; details: route oral

**Q.** With `CC(C)NCC(O)COc1ccc2c(=O)cc(-c3ccccc3)oc2c1` (centres undefined) as the compound, how does the Decrease (Rattus norvegicus [1]) read?
**A.** 14%

**Q.** And the “Decrease in Systolic blood pressure” value (Rattus norvegicus [2])?
**A.** 21%

**Q.** What about the Ki (Adrenergic receptor beta) of the same compound?
**A.** 12 µM

**Q.** And the Decrease (Rattus norvegicus [3])?
**A.** 100%

**Q.** And the Decrease (Rattus norvegicus [4])?
**A.** -4%

**Q.** And the Systolic blood pressure (Rattus norvegicus [5])?
**A.** 208

**Q.** What about the Decrease (Rattus norvegicus [6]) of the same compound?
**A.** 71%

**Q.** What about the Decrease (Rattus norvegicus [7]) of the same compound?
**A.** 2%

**Q.** And the Decrease (Rattus norvegicus [8])?
**A.** 0%

**Q.** And the “Decrease in Systolic blood pressure” value (Rattus norvegicus [9])?
**A.** 27%

**Q.** And the Decrease (Rattus norvegicus [10])?
**A.** 10%

**Q.** And the % decrease SBP (Rattus norvegicus [11])?
**A.** 33%

**Q.** What about the % decrease SBP (Rattus norvegicus [12]) of the same compound?
**A.** 16%

**Q.** What about the Decrease (Rattus norvegicus [13]) of the same compound?
**A.** 100%

**Q.** And the Decrease (Rattus norvegicus [14])?
**A.** 40%

**Q.** What about the Decrease (Rattus norvegicus [15]) of the same compound?
**A.** 17%

**Q.** What about the Decrease (Rattus norvegicus [16]) of the same compound?
**A.** 57%

**Q.** What about the “Decrease in Systolic blood pressure” value (Rattus norvegicus [17]) of the same compound?
**A.** inactive

**Q.** And the Decrease (Rattus norvegicus [18])?
**A.** 10%

**Q.** What about the Decrease (Rattus norvegicus [19]) of the same compound?
**A.** 100%

**Q.** What about the Decrease (Rattus norvegicus [20]) of the same compound?
**A.** 2%

**Q.** What about the Decrease (Rattus norvegicus [21]) of the same compound?
**A.** 23%

**Q.** And the Systolic blood pressure (Rattus norvegicus [22])?
**A.** 203

**Q.** And the Decrease (Rattus norvegicus [23])?
**A.** 16%

**Q.** And the Activity (Cavia porcellus)?
**A.** Weak activity

**Q.** What about the Decrease (Rattus norvegicus [24]) of the same compound?
**A.** 39%

**Q.** What about the Decrease (Rattus norvegicus [25]) of the same compound?
**A.** 4%

**Q.** Which Decrease (Rattus norvegicus [26]) does the source give for `CN(C)CC(O)COc1ccc2c(=O)cc(-c3ccccc3)oc2c1` (centres undefined) here?
**A.** 20%

**Q.** And the Systolic blood pressure (Rattus norvegicus [5])?
**A.** 207

**Q.** And the Decrease (Rattus norvegicus [27])?
**A.** 0%

**Q.** What about the % decrease SBP (Rattus norvegicus [11]) of the same compound?
**A.** 5%

**Q.** What about the % decrease SBP (Rattus norvegicus [12]) of the same compound?
**A.** 0%

**Q.** And the Decrease (Rattus norvegicus [28])?
**A.** 18%

**Q.** And the Decrease (Rattus norvegicus [29])?
**A.** 37%

**Q.** And the “% decrease hypothalamus DA” value (Rattus norvegicus [30])?
**A.** 47%

**Q.** And the “% decrease hypothalamus DA” value (Rattus norvegicus [31])?
**A.** 29%

**Q.** And the “Decrease in Systolic blood pressure” value (Rattus norvegicus [32])?
**A.** Not significant

**Q.** And the Decrease (Rattus norvegicus [33])?
**A.** 0%

**Q.** And the Decrease (Rattus norvegicus [34])?
**A.** 7%

— ChEMBL document CHEMBL1124625, “Flavones. 2. Synthesis and structure-activity relationship of flavodilol and its analogues, a novel class of antihypertensive agents with catecholamine depleting properties” (J Med Chem, 1989)
